# Results published in PubChem BioAssay (NCI).
#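 Grown in 96-well plates, cells were treated for 48 hours with each compound at five concentrations. Insufficient inhibition: endpoint recorded as highest concentration tested. At the TGI there is no net growth.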
# Tests used:
# Assay in all cases: growth of human tumour cells (NCI), 48 h
# [1] = test system: A549 NSCLC
# [2] = test system: DU-145 prostate
# [3] = test system: HL-60(TB) leukemia
# [4] = test system: IGROV1 ovarian
# [5] = test system: M14 melanoma
# [6] = test system: MCF7 breast
# [7] = test system: OVCAR-8 ovarian
# [8] = test system: PC-3 prostate
# [9] = test system: SK-MEL-5 melanoma
# [10] = test system: SR leukemia
# [11] = test system: TK-10 renal
# [12] = test system: UACC-257 melanoma
Structure (SMILES),TGI [1],TGI [2],TGI [3],TGI [4],TGI [5],TGI [6],TGI [7],TGI [8],TGI [9],TGI [10],TGI [11],TGI [12]
COc1ccc2nc3cc([N+](=O)[O-])ccc3c(NNc3ccc(Cl)cc3)c2c1,> 85 µM,> 96.5 µM,> 73.8 µM,45.1 µM,> 92.5 µM,> 100 µM,65.1 µM,> 77.5 µM,36.2 µM,37.7 µM,5.16 µM,> 100 µM
N#CC1=C(C#N)/C(=C(\C#N)C(C#N)C#N)N=C1N,54.9 µM,> 100 µM,39.1 µM,> 100 µM,34.3 µM,> 100 µM,> 100 µM,> 100 µM,31.8 µM,66.7 µM,> 68.3 µM,51.7 µM
CN1CC2=C(NC(=S)NC2c2ccc(Cl)cc2)/C(=C/c2ccc(Cl)cc2)C1 (stereo not drawn),45.1 µM,30.5 µM,48 µM,32.6 µM,33.6 µM,68.4 µM,37.8 µM,23.1 µM,26.8 µM,51.5 µM,> 100 µM,43.2 µM
C/C(=N\NS(=O)(=O)c1ccc(C)cc1)C(CN(C)C)C(c1ccccc1)c1c(O)c2ccccc2oc1=O (stereo not drawn),> 100 µM,> 100 µM,> 100 µM,> 100 µM,> 100 µM,> 100 µM,> 100 µM,> 100 µM,> 100 µM,> 100 µM,> 100 µM,> 100 µM
CC1(C)[C@@H]2C[C@H]1C(Cc1ccc(C[C@H]3c4cc(-c5ccccn5)ncc4[C@H]4C[C@@H]3C4(C)C)cc1)c1cc(-c3ccccn3)ncc12 (stereo partly drawn),87.9 µM,> 100 µM,2.28 µM,> 100 µM,> 100 µM,> 100 µM,15.8 µM,22.8 µM,7.81 µM,5.02 µM,> 100 µM,> 100 µM
O=c1n(-c2ccccc2)c(=O)n2n1C1CCC2CC1,> 100 µM,> 100 µM,> 100 µM,> 100 µM,> 100 µM,> 100 µM,> 100 µM,> 100 µM,> 100 µM,> 100 µM,> 100 µM,> 100 µM
CC1(C)C=C(/C=N/Nc2ccc(Br)cc2)C(C#N)=C(O)C1(C#N)C#N,> 100 µM,> 100 µM,88.1 µM,> 100 µM,> 100 µM,> 100 µM,> 100 µM,63.9 µM,> 100 µM,75.5 µM,> 100 µM,> 100 µM
C=C1CC2(OC1=O)c1ccccc1C=Cc1ccccc12,23.3 µM,23.6 µM,4.86 µM,15.9 µM,10 µM,6.54 µM,11.7 µM,16.3 µM,16.4 µM,9.17 µM,11.1 µM,10.2 µM
CC1=NN2C(=O)CC(=O)N=C2S1,> 100 µM,> 100 µM,> 100 µM,> 100 µM,> 100 µM,> 100 µM,> 100 µM,> 100 µM,> 100 µM,> 100 µM,> 100 µM,> 100 µM
